Like-named read-outs stand apart in the source and are kept apart here.

Assay type in all cases: cell-based
In one experiment the target is T1, hGCGR (Homo sapiens, UniProt P47871).
T1 construct: expressed in transfected cells
Kind of experiment: Functional cAMP formation (HTRF) in HEK-293 clonal cells expressing hGCGR, 0.1% bovine casein, without or with 1.0% human serum albumin. The essentials: (§1)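 Readings of the HTRF 665/620 nm ratio, which falls as cAMP rises, were converted to nM cAMP using a standard curve after 30 min peptide exposure at 37° C.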
Background: cAMP levels reflect the balance of adenylyl cyclase and phosphodiesterase activity.

A further experiment concerns the target T2, hGIPR (Homo sapiens, UniProt P48546).
T2 construct: expressed in transfected cells
T2 sequence (P48546 22-466): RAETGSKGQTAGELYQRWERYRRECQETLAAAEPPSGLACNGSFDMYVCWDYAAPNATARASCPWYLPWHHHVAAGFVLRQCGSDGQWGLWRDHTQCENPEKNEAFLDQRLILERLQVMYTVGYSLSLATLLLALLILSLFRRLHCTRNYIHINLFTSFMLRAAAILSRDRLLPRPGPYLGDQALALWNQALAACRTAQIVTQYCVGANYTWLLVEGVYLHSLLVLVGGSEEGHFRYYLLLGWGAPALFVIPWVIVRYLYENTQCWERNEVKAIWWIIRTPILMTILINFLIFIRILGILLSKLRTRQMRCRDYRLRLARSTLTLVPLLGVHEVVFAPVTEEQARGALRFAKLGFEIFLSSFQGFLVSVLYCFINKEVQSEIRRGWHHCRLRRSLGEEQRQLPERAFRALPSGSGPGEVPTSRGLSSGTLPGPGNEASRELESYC
Kind of experiment: Functional cAMP formation (HTRF) in HEK-293 clonal cells expressing hGIPR, 0.1% bovine casein, without or with 1.0% human serum albumin. The conditions noted are these: for EC50: geometric mean. Summed up:
as §1

The target of the next experiment is hGLP-1R (Homo sapiens, UniProt P43220). Kind of experiment: Functional cAMP formation (HTRF) in HEK-293 clonal cells expressing hGLP-1R, 0.1% bovine casein, without or with 1.0% human serum albumin. More on the design: expressed in transfected cells. The conditions noted are these: for EC50: cAMP. The essentials:
as §1

The mark [1] stands for this setting: hGCGR EC50, nM (SEM, n), cAMP, incubated at 37° C., 0.1% bovine casein (no human serum albumin), geometric mean.
[2] abbreviates: HEK293, read-out: hGIPR Emax, % ± SEM, percent of maximal response to GIP(1-42)NH2, 37° C., 0.1% bovine casein, arithmetic mean.
Setting [3] is: hGLP-1R EC50, nM (SEM, n), incubated at 37° C., 0.1% bovine casein (no human serum albumin), geometric mean.

T1 sequence (P47871 26-477): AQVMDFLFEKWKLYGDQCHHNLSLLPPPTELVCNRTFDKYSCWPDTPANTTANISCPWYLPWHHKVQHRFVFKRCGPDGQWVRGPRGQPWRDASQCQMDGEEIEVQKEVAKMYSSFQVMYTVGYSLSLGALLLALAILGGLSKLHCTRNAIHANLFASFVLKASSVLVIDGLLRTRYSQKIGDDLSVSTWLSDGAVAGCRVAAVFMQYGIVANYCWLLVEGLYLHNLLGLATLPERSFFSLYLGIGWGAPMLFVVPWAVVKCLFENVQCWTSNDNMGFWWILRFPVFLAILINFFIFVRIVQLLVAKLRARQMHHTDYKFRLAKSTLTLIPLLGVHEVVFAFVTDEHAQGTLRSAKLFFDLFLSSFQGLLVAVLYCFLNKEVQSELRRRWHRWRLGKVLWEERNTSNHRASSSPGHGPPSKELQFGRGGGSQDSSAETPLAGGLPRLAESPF
Chain of hGLP-1R (P43220 24-463): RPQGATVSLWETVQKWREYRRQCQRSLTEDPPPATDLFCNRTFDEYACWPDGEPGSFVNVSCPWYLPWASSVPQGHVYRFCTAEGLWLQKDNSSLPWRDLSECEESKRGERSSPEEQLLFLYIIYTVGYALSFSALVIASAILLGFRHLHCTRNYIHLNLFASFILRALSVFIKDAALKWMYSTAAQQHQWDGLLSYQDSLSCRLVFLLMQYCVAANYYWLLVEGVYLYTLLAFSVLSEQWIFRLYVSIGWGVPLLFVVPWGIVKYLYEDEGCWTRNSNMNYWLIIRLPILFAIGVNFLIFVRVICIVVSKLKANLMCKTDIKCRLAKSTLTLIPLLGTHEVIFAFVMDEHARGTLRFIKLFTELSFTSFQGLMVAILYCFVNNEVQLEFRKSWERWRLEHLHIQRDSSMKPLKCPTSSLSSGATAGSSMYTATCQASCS

Regarding `CC[C@H](C)[C@H](NC(=O)[C@H](CC(C)C)NC(=O)[C@](C)(Cc1ccc(O)cc1)NC(=O)[C@H](CCCCNC(=O)COCCOCCNC(=O)COCCOCCNC(=O)CC[C@H](NC(=O)CC[C@H](NC(=O)CCCCCCCCCCCCC(=O)O)C(=O)O)C(=O)O)NC(=O)[C@@H](NC(=O)[C@H](Cc1ccccc1)NC(=O)[C@H](CCCN)NC(=O)C(C)(C)NC(=O)[C@H](CCC(N)=O)NC(=O)[C@H](C)NC(=O)[C@H](CCC(N)=O)NC(=O)[C@H](CCCN)NC(=O)[C@H](CC(=O)O)NC(=O)[C@H](CC(C)C)NC(=O)[C@](C)(CC(C)C)NC(=O)[C@@H](NC(=O)C(C)(C)NC(=O)[C@H](Cc1ccc(O)cc1)NC(=O)[C@H](CC(=O)O)NC(=O)[C@H](CO)NC(=O)[C@@H](NC(=O)[C@](C)(Cc1ccccc1F)NC(=O)[C@@H](NC(=O)CNC(=O)[C@H](CCC(=O)O)NC(=O)C(C)(C)NC(=O)[C@@H](N)Cc1ccc(O)cc1)[C@@H](C)O)[C@@H](C)O)[C@@H](C)CC)[C@@H](C)CC)C(=O)N[C@@H](CCCCNC(=O)COCCOCCNC(=O)COCCOCCNC(=O)CC[C@H](NC(=O)CC[C@H](NC(=O)CCCCCCCCCCCCC(=O)O)C(=O)O)C(=O)O)C(=O)NCC(=O)NCC(=O)N1CCC[C@H]1C(=O)N[C@@H](CO)C(=O)N[C@@H](CO)C(=O)NCC(=O)N[C@@H](C)C(=O)N1CCC[C@H]1C(=O)N1CCC[C@H]1C(=O)N1CCC[C@H]1C(=O)N[C@@H](CO)C(N)=O` [Example 480], the concentration for a half-maximal effect (EC50) (usually the concentration giving half of the maximal effect) on hGCGR (cAMP, 37° C., 0.1% bovine casein (no human serum albumin), geometric mean, read-out: hGCGR EC50, nM (SEM, n)) is above 9950 nM; on hGCGR (cAMP, 37° C., 0.1% bovine casein and 1.0% human serum albumin, geometric mean (SEM, n), read-out: hGCGR EC50, nM (SEM, n)), above 9950 nM; at hGIPR (cAMP, 37° C., 0.1% bovine casein (no human serum albumin), read-out: hGIPR EC50, nM (SEM, n)) it was 0.00955 nM; on hGLP-1R (37° C., 0.1% bovine casein (no human serum albumin), geometric mean, read-out: hGLP-1R EC50, nM (SEM, n)), 0.124 nM; at hGLP-1R (37° C., 0.1% bovine casein and 1.0% human serum albumin, geometric mean (SEM, n), read-out: hGLP-1R EC50, nM (SEM, n)) it was 2.65 nM. For the same compound, the maximum response (Emax) (usually the size of the effect at its maximum, as opposed to the concentration needed) on hGLP-1R (HEK293, cAMP, 37° C., 0.1% bovine casein, percent of maximal response to GLP-1(7-36)NH2, arithmetic mean, read-out: hGLP-1R Emax, % ± SEM) is 120%.

For the compound `CC[C@H](C)[C@H](NC(=O)[C@H](CC(C)C)NC(=O)[C@](C)(Cc1ccc(O)cc1)NC(=O)[C@H](CCCCNC(=O)COCCOCCNC(=O)COCCOCCNC(=O)[C@@H](N)CCCCNC(=O)CCCCCCCCCCCCC(=O)O)NC(=O)[C@@H](NC(=O)[C@H](Cc1ccccc1)NC(=O)[C@H](CCC(=O)O)NC(=O)C(C)(C)NC(=O)[C@H](CCC(N)=O)NC(=O)[C@H](C)NC(=O)[C@H](CCCCNC(=O)COCCOCCNC(=O)COCCOCCNC(=O)[C@@H](N)CCCCNC(=O)CCCCCCCCCCCCC(=O)O)NC(=O)[C@H](CCCN)NC(=O)[C@H](CC(=O)O)NC(=O)[C@H](CC(C)C)NC(=O)[C@](C)(CC(C)C)NC(=O)[C@@H](NC(=O)C(C)(C)NC(=O)[C@@H](NC(=O)[C@H](CC(=O)O)NC(=O)[C@H](CO)NC(=O)[C@@H](NC(=O)[C@](C)(Cc1ccccc1F)NC(=O)[C@@H](NC(=O)CNC(=O)[C@H](CCC(=O)O)NC(=O)C(C)(C)NC(=O)[C@@H](N)Cc1ccc(O)cc1)[C@@H](C)O)[C@@H](C)O)C(C)C)[C@@H](C)CC)[C@@H](C)CC)C(=O)N[C@@H](CCC(=O)O)C(=O)NCC(=O)NCC(=O)N1CCC[C@H]1C(=O)N[C@@H](CO)C(=O)N[C@@H](CO)C(=O)NCC(=O)N[C@@H](C)C(=O)N1CCC[C@H]1C(=O)N1CCC[C@H]1C(=O)N1CCC[C@H]1C(=O)N[C@@H](CO)C(N)=O` [Example 166], the concentration for a half-maximal effect (EC50) is above 9950 nM on hGCGR (setting [1]) and 0.192 nM at hGLP-1R (setting [3]). Moreover, the maximal response (Emax) was determined as 97% at hGIPR (setting [2]) and 90.3% at hGLP-1R (HEK293, read-out: hGLP-1R Emax, % ± SEM, percent of maximal response to GLP-1(7-36)NH2, 37° C., 0.1% bovine casein, arithmetic mean).

On to `CC[C@H](C)[C@H](NC(=O)[C@H](CC(C)C)NC(=O)[C@](C)(Cc1ccc(O)cc1)NC(=O)[C@@H](CCC(=O)O)NC(=O)[C@@H](NC(=O)[C@H](Cc1ccccc1)NC(=O)[C@H](CCC(=O)O)NC(=O)C(C)(C)NC(=O)[C@H](CCC(N)=O)NC(=O)[C@H](C)NC(=O)[C@H](CCCCNC(=O)COCCOCCNC(=O)COCCOCCNC(=O)CC[C@H](NC(=O)CCCCCCCCCCCCC(=O)O)C(=O)O)NC(=O)[C@H](CCCN)NC(=O)[C@H](CC(=O)O)NC(=O)[C@H](CC(C)C)NC(=O)[C@](C)(CC(C)C)NC(=O)[C@@H](NC(=O)[C@H](CO)NC(=O)C1(NC(=O)[C@H](CC(=O)O)NC(=O)[C@H](CO)NC(=O)[C@@H](NC(=O)[C@](C)(Cc2ccccc2F)NC(=O)[C@@H](NC(=O)CNC(=O)[C@H](CCC(=O)O)NC(=O)C(C)(C)NC(=O)[C@@H](N)Cc2ccc(O)cc2)[C@@H](C)O)[C@@H](C)O)CCC1)[C@@H](C)CC)[C@@H](C)CC)C(=O)N[C@@H](CCC(=O)O)C(=O)NCC(=O)NCC(=O)N[C@@H](CCCCNC(=O)COCCOCCNC(=O)COCCOCCNC(=O)CC[C@H](NC(=O)CCCCCCCCCCCCC(=O)O)C(=O)O)C(=O)N[C@@H](CO)C(=O)N[C@@H](CO)C(=O)NCC(=O)N[C@@H](C)C(=O)N1CCC[C@H]1C(=O)N1CCC[C@H]1C(=O)N1CCC[C@H]1C(=O)N[C@@H](CO)C(N)=O` [Example 95], for which the EC50 on hGCGR (0.1% bovine casein and 1.0% human serum albumin, 37° C., geometric mean, read-out: hGCGR EC50, nM (SEM, n)) is above 9950 nM; at hGCGR (cAMP, incubated at 37° C., 0.1% bovine casein (no human serum albumin), geometric mean, read-out: hGCGR EC50, nM (SEM, n)), above 9950 nM; on hGIPR (0.1% bovine casein and 1.0% human serum albumin, 37° C., read-out: hGIPR EC50, nM (SEM, n)), 4.68 nM. For the same compound, the maximum response (Emax) at hGIPR (HEK293, 0.1% bovine casein and 1.0% human serum albumin, 37° C., percent of maximal response to GIP(1-42)NH2, read-out: hGIPR Emax, % ± SEM) stood at 86.9%; at hGIPR (HEK293, percent of maximal response to GIP(1-42)NH2, 37° C., 0.1% bovine casein, arithmetic mean, read-out: hGIPR Emax, % ± SEM), 97.3%; on hGLP-1R (HEK293, 0.1% bovine casein and 1.0% human serum albumin, 37° C., percent of maximal response to GLP-1(7-36)NH2, read-out: hGLP-1R Emax, % ± SEM), 84%; at hGLP-1R (HEK293, percent of maximal response to GLP-1(7-36)NH2, 37° C., 0.1% bovine casein, arithmetic mean, read-out: hGLP-1R Emax, % ± SEM), 86.9%.

As for `CC[C@H](C)[C@H](NC(=O)[C@H](CC(C)C)NC(=O)[C@](C)(Cc1ccccc1)NC(=O)[C@H](CCCCNC(=O)COCCOCCNC(=O)COCCOCCNC(=O)CC[C@H](NC(=O)CCCCCCCCCCCCC(=O)O)C(=O)O)NC(=O)[C@@H](NC(=O)[C@](C)(Cc1ccccc1)NC(=O)[C@H](CCC(=O)O)NC(=O)C(C)(C)NC(=O)[C@H](CCC(N)=O)NC(=O)[C@H](C)NC(=O)[C@H](CCCCNC(=O)COCCOCCNC(=O)COCCOCCNC(=O)CC[C@H](NC(=O)CCCCCCCCCCCCC(=O)O)C(=O)O)NC(=O)[C@H](CCCN)NC(=O)[C@H](CC(=O)O)NC(=O)[C@H](CC(C)C)NC(=O)[C@](C)(CC(C)C)NC(=O)[C@@H](NC(=O)C(C)(C)NC(=O)[C@H](Cc1ccncc1)NC(=O)[C@H](CC(=O)O)NC(=O)[C@H](CO)NC(=O)[C@@H](NC(=O)[C@](C)(Cc1ccccc1F)NC(=O)[C@@H](NC(=O)CNC(=O)[C@H](CCC(=O)O)NC(=O)C(C)(C)NC(=O)[C@@H](N)Cc1ccc(O)cc1)[C@@H](C)O)[C@@H](C)O)[C@@H](C)CC)[C@@H](C)CC)C(=O)N[C@@H](CCC(=O)O)C(=O)NCC(=O)NCC(=O)N1CCC[C@H]1C(=O)N[C@@H](CO)C(=O)N[C@@H](CO)C(=O)NCC(=O)N[C@@H](C)C(=O)N1CCC[C@H]1C(=O)N1CCC[C@H]1C(=O)N1CCC[C@H]1C(=O)N[C@@H](CO)C(N)=O` [Example 121], the half-maximal effective concentration (EC50) is above 9950 nM at hGCGR (setting [1]); 0.0271 nM on hGIPR (hGIPR EC50, nM (SEM, n), cAMP, incubated at 37° C., 0.1% bovine casein (no human serum albumin)); 8.95 nM on hGLP-1R (setting [3]). Further, on hGIPR (setting [2]), the Emax worked out at 92.8%.

Values taken from patent US20230265151A1, “GIP/GLP1 CO-AGONIST COMPOUNDS” (priority 2020, published 2023).
